Measured values from patent publication US20180305332A1, “Bispiperidinyl Derivatives as Liver X Receptor Beta Agonists, Compositions, and Their Use” (Merck Sharp & Dohme Corp., priority 2015, published 2018).
pEC50: −log10 of the molar value.

How the values were obtained:
[1] = target: T1, GST tagged LXRbeta LBD (ligand binding domain) (Homo sapiens, UniProt P55055); assay: LanthaScreen TR-FRET Liver X Receptor Coactivator Assay, LXR beta-LBD; assay type: biochemical; settings: relative to reference T0901317; for pEC50: Inflection Point (potency), co-activator recruitment, read-out: LXR beta IP; for Emax / LXR beta act @ max dose (%): activity at max dose (efficacy); for Emax: read-out: LXR beta act @ max dose (%)
T1 construct: purchased Invitrogen pv4658.pps
T1 sequence (P55055 222-460 limits assumed): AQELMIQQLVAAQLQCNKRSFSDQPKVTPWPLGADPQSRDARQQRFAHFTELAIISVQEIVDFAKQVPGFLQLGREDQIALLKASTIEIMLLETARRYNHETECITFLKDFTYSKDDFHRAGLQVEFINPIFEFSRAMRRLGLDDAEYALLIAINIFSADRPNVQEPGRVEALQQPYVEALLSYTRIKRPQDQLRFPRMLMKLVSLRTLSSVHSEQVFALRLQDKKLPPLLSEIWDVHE
Summary of the method: (§1)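 Compound-induced coactivator recruitment measured by TR-FRET between a terbium anti-GST antibody bound to the GST-LBD (LXRα or LXRβ, human) and a fluorescein coactivator peptide, after incubation at room temperature. Potency (inflection point) and efficacy (Emax) referenced to T0901317.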

[2] = target: T2, GST tagged LXRalpha LBD (ligand binding domain) (Homo sapiens, UniProt Q13133); assay: LanthaScreen TR-FRET Liver X Receptor Coactivator Assay, LXR alpha-LBD; assay type: biochemical; settings: relative to reference T0901317; for pEC50 / LXR alpha IP (nM): Inflection Point (potency), co-activator recruitment; for pEC50: read-out: LXR alpha IP; for Emax / LXR alpha act @ max dose (%): activity at max dose (efficacy); for Emax: read-out: LXR alpha act @ max dose (%)
T2 construct: purchased Invitrogen pv4655
T2 sequence (Q13133 209-447 limits assumed): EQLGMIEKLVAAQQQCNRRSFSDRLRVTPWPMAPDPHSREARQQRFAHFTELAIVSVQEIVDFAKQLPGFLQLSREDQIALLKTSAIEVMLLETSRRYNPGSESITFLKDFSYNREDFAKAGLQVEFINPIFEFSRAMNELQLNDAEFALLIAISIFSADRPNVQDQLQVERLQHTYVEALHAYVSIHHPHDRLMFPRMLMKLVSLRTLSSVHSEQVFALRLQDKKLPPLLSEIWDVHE
Summary of the method: as §1

Row | SMILES | pEC50 [1] | Emax [1] [%] | pEC50 [2] | Emax [2] [%] | LXR alpha IP (nM) [2] | LXR beta act @ max dose (%) [1] [%] | LXR alpha act @ max dose (%) [2] [%]
1 | CC[C@](O)(C(=O)N1CCC(C2CCN(c3ccc(C(=O)N(C)C)c(Cl)c3)CC2)CC1)C(F)(F)F (single isomer, unassigned) [Example A-42] | 7.21 | 117 | 5.52 | 67 |  |  | 
2 | COc1cccc(C2(C(=O)N3CCC(C4CCN(c5ccc(C(=O)N(C)C)c(Cl)c5)CC4)CC3)CCCC2)c1 [Example A-78, 2-chloro-4-(1′-{[1-(3-methoxyphenyl)cyclopentyl]carbonyl}-4,4′-bipiperidin-1-yl)-N,N-dimethylbenzamide] | 6.68 | 81 |  | 15 | NO IP |  | 
3 | CN(C)C(=O)c1ccc(N2CCC(C3CCN(C(=O)c4c(F)cccc4Cl)CC3)CC2)cc1Cl [Example A-24, 2-chloro-4-{1′-[(2-chloro-6-fluorophenyl)carbonyl]-4,4′-bipiperidin-1-yl}-N,N-dimethylbenzamide] | 7.05 | 107 | 5.31 | 31 |  |  | 
4 | CN(C)C(=O)c1ccc(N2CCC(C3CCN(c4ccccc4C(F)(F)F)CC3)CC2)cc1Cl [Example A106, 2-chloro-N,N-dimethyl-4-{1′-[2-(trifluoromethyl)phenyl]-4,4′-bipiperidin-1-yl}benzamide] | 6.28 | 91 | 5.68 | 27 |  |  | 
5 | COc1ccccc1C1(C(=O)N2CCC(C3CCN(c4ccc(C(=O)N(C)C)c(Cl)c4)CC3)CC2)CCC1 [Example A-87, 2-chloro-4-(1′-{[1-(2-methoxyphenyl)cyclobutyl]carbonyl}-4,4′-bipiperidin-1-yl)-N,N-dimethylbenzamide] | 7.96 | 110 | 6.30 | 58 |  |  | 
6 | COc1cccc(C(O)(C(=O)N2CCC(C3CCN(c4ccc(C(=O)N(C)C)c(Cl)c4)CC3)CC2)C(F)(F)C(F)(F)F)c1 (stereo not shown) [Example A-85, 2-chloro-N,N-dimethyl-4-{1′-[3,3,4,4,4-pentafluoro-2-hydroxy-2-(3-methoxyphenyl)butanoyl]-4,4′-bipiperidin-1-yl}benzamide] | 6.74 |  | 5.95 |  |  | 115 | 41
7 | CN(C)C(=O)c1ccc(N2CCC(C3CCN(S(=O)(=O)c4ccccc4Cl)CC3)CC2)cc1Cl [Example A-103, 2-chloro-4-{1′-[(2-chlorophenyl)sulfonyl]-4,4′-bipiperidin-1-yl}-N,N-dimethylbenzamide] | 7.80 | 122 | 5.66 | 54 |  |  | 
8 | CN(C)C(=O)c1ccc(N2CCC(C3CCN(C(=O)C4(c5ccc(Cl)cc5)CCC4)CC3)CC2)cc1Cl [Example A-47, 2-chloro-4-(1′-{[1-(4-chlorophenyl)cyclobutyl]carbonyl}-4,4′-bipiperidin-1-yl)-N,N-dimethylbenzamide] | 6.75 | 78 |  | 4 | NO IP |  | 
9 | COc1ccccc1C(O)(C(=O)N1CCC(C2CCN(c3ccc(C(=O)N(C)C)c(Cl)c3)CC2)CC1)C(F)(F)F (stereo not shown) [Example A-97, 2-chloro-N,N-dimethyl-4-{1′-[3,3,3-trifluoro-2-hydroxy-2-(2-methoxyphenyl)propanoyl]-4,4′-bipiperidin-1-yl}benzamide] | 6.94 | 100 | 5.61 | 37 |  |  | 
10 | CN(C)C(=O)c1ccc(N2CCC(C3CCN(C(=O)C(O)(c4ccccc4)C(F)(F)F)CC3)CC2)nc1Cl (stereo in doubt) [Example B-9, 2-chloro-N,N-dimethyl-6-{1′-[(2R)-3,3,3-trifluoro-2-hydroxy-2-phenylpropanoyl]-4,4′-bipiperidin-1-yl}pyridine-3-carboxamide] | 7.32 | 104 | 5.71 | 31 |  |  | 
11 | CN(C)C(=O)c1ccc(N2CCC(C3CCN(C(=O)C(O)(C4CC4)C(F)(F)F)CC3)CC2)cc1Cl (single isomer, unassigned) [Example A-8, 2-chloro-4-[1′-(2-cyclopropyl-3,3,3-trifluoro-2-hydroxypropanoyl)-4,4′-bipiperidin-1-yl]-N,N-dimethylbenzamide] | 6.61 | 95 | 5.74 | 60 |  |  | 
12 | CC(C)CC(O)(C(=O)N1CCC(C2CCN(c3ccc(C(=O)N(C)C)c(Cl)c3)CC2)CC1)C(F)(F)F (stereo not shown) [Example A-89, 2-chloro-4-{1′-[2-hydroxy-4-methyl-2-(trifluoromethyl)pentanoyl]-4,4′-bipiperidin-1-yl}-N,N-dimethylbenzamide] | 6.99 |  | 5.91 |  |  | 94 | 36
13 | CN(C)C(=O)c1ccc(N2CCC(C3CCN(C(=O)C4(c5cc(F)ccc5F)CCC4)CC3)CC2)cc1Cl [Example A-76, 2-chloro-4-(1′-{[1-(2,5-difluorophenyl)cyclobutyl]carbonyl}-4,4′-bipiperidin-1-yl)-N,N-dimethylbenzamide] | 6.43 | 87 | 5.70 | 31 |  |  | 
14 | CN(C)C(=O)c1ccc(N2CCC(C3CCN(C(=O)C(O)(c4ccccc4)C(F)(F)F)CC3)CC2)cc1Cl (stereo not shown) [Example A-36, 2-chloro-N,N-dimethyl-4-[1′-(3,3,3-trifluoro-2-hydroxy-2-phenylpropanoyl)-4,4′-bipiperidin-1-yl]benzamide] | 6.97 | 113 | 5.74 | 27 |  |  | 
15 | CN(C)C(=O)c1ccc(N2CCC(C3CCN(C(=O)C(C)(C)c4ccc(Cl)cc4Cl)CC3)CC2)cc1Cl [Example A-60, 2-chloro-4-{1′-[2-(2,4-dichlorophenyl)-2-methylpropanoyl]-4,4′-bipiperidin-1-yl}-N,N-dimethylbenzamide] | 7.48 | 109 | 6.14 | 32 |  |  | 
16 | Cc1ccc(C(C)(C)C(=O)N2CCC(C3CCN(c4ccc(C(=O)N(C)C)c(Cl)c4)CC3)CC2)cc1 [Example A-92, 2-chloro-N,N-dimethyl-4-{1′-[2-methyl-2-(4-methylphenyl)propanoyl]-4,4′-bipiperidin-1-yl}benzamide] | 6.71 | 99 | 5.55 | 31 |  |  | 

The remaining lines, values ahead:

Row | pEC50 [1] | Emax [1] [%] | pEC50 [2] | Emax [2] [%] | LXR alpha IP (nM) [2] | LXR beta act @ max dose (%) [1] [%] | LXR alpha act @ max dose (%) [2] [%] | SMILES
17 | 6.34 | 74 | 5.42 | 23 |  |  |  | O=C(c1ccc(N2CCC(C3CCN(C(=O)[C@](O)(c4ccccc4)C(F)(F)F)CC3)CC2)cc1Cl)N1CC(O)C1 [Example E-36, 1-[(2-chloro-4-{1′-[(2R)-3,3,3-trifluoro-2-hydroxy-2-phenylpropanoyl]-4,4′-bipiperidin-1-yl}phenyl)carbonyl]azetidin-3-ol]
18 | 7.92 | 126 | 6.68 | 72 |  |  |  | O=C(c1ccc(N2CCC(C3CCN(C(=O)[C@](O)(c4ccccc4)C(F)(F)C(F)(F)F)CC3)CC2)cc1Cl)N1CCC[C@H]1CO [Example E-66, (2R)-1-[1′-(3-chloro-4-{[(2S)-2-(hydroxymethyl)pyrrolidin-1-yl]carbonyl}phenyl)-4,4′-bipiperidin-1-yl]-3,3,4,4,4-pentafluoro-1-oxo-2-phenylbutan-2-ol]
19 | 7.14 | 99 | 5.89 | 52 |  |  |  | CC(C)(C(=O)N1CCC(C2CCN(c3ccc(C(=O)N4CCCC4)c(Cl)c3)CC2)CC1)c1ccccc1 [Example E-18, 1-[3-chloro-4-(pyrrolidin-1-ylcarbonyl)phenyl]-1′-(2-methyl-2-phenylpropanoyl)-4,4′-bipiperidine]
20 | 6.38 | 68 | 5.99 | 12 |  |  |  | O=C(c1ccc(N2CCC(C3CCN(C(=O)[C@](O)(c4ccccc4)C(F)(F)F)CC3)CC2)cc1Cl)N1CC(F)C1 [Example E-45, (2R)-3-(1′-{3-chloro-4-[(3-fluoroazetidin-1-yl)carbonyl]phenyl}-4,4′-bipiperidin-1-yl)-1,1,1-trifluoro-3-oxo-2-phenylpropan-2-ol]
21 | 6.84 | 62 | 5.77 | 18 |  |  |  | CC(c1ccon1)N(C)C(=O)c1ccc(N2CCC(C3CCN(C(=O)[C@](O)(c4ccccc4)C(F)(F)F)CC3)CC2)cc1Cl (stereo partly drawn) [Example E-51, 2-chloro-N-(1-isoxazol-3-ylethyl)-N-methyl-4-{1′-[(2R)-3,3,3-trifluoro-2-hydroxy-2-phenylpropanoyl]-4,4′-bipiperidin-1-yl}benzamide]
22 | 6.91 | 81 | 6.09 | 41 |  |  |  | CC(C)(C)OC(=O)N1CCC(C2CCN(c3ccc(S(C)(=O)=O)c(Cl)c3)CC2)CC1 [Example D-9, tert-butyl 1′-[3-chloro-4-(methylsulfonyl)phenyl]-4,4′-bipiperidine-1-carboxylate]
